Measurements taken from patent US9278068B2, “Vesicle compositions” (Sensulin LLC, priority 2011, dated 2016).

Experiments:
HeLa cells = assay: MTT assay for cytotoxicity; details: 2 h
Method: The cytotoxicity of the boronic acid derivatives from Table 1 was studied by MTT assay. 150,000 HeLa cells were plated in 96 well plates on the night before the experiments. On the day of experiments, the cells were treated with the boronic acid derivatives at three different concentrations (40 nM, 80 nM, and 160 nM) for 2 h. At the end of the incubation, MTT assays (In-Vitro toxicology MTT based assay kit, Sigma Aldrich, MO) were performed according to the manufacturer's protocol.

NF-κB = NF-κB assay for inflammation (nuclear translocation of NF-κB, immunocytochemistry, PCC); details: HeLa cells; for Inflammation (PCC) 40 nM / Inflammation (PCC) 80 nM / Inflammation (PCC) 160 nM: 2 h, PCC between nuclear and cytoplasmic fraction of NF-κB
Method: 15,000 HeLa cells were plated in 96 well plates the night before the experiments. On the day of the experiments, the cells were treated with the boronic acids (Table 1, below) at three different concentrations (40 nM, 80 nM, and 160 nM) for 2 h. At the end of the incubation, cells were washed with phosphate buffered saline (PBS) and were fixed in 4% paraformaldehyde for 15 min and permeablized with 0.01% Triton X-100 in PBS for 10 min. The cells were washed with PBS three times. Nonspecific sites were blocked with 5% bovine serum albumin (BSA) in PBS and incubated with the Anti-NF-κB for 1 h, followed by incubation with fluorescein isothiocyanate (FITC)-labeled secondary antibody. After washing the cells at the end of the incubation, the cells were treated with 4′,6-diamidino-2-phenylindole (DAPI) for 1 min and kept at 4° C. until further analysis. Images of the cells were acquired with a Beckman-Coulter 100 automated high-throughput microscope system and analyzed using Cytseer software (Vala Sciences, CA). The co-localization of NF-κB was quantified by measuring the PCC between the nuclear and cytoplasmic fraction of the NF-κB molecule. The PCC is a measure of the overlap between the pixel intensities of the nuclear and NF-κB images of the same cell. The PCC values can range from −1 to 1. […] A negative correlation (negative PCC value) indicates an absence of nuclear translocation.

Row | Compound | MTT (% Cell Survival) 40 nM (HeLa cells) [%] | MTT (% Cell Survival) 80 nM (HeLa cells) [%] | MTT (% Cell Survival) 160 nM (HeLa cells) [%] | Inflammation (PCC) 40 nM (NF-κB) | Inflammation (PCC) 80 nM (NF-κB) | Inflammation (PCC) 160 nM (NF-κB) | nuclear or cytoplasmic localization of NF-κB (FIG. 4 images) (NF-κB; boronic acids 80 nM, 2 hrs, LPS positive control)
1 | OB(O)c1cccc2cnccc12 [5-isoquinolineboronic acid] | 75.80 | 60.84 | 41.69 | −0.0412 | 0.02463 | 0.2784 | predominantly nuclear NF-κB
2 | OB(O)c1cccc2c1Sc1ccccc1S2 [thianthrene-1-boronic acid] | 64.19 | 61.32 | 81.10 | −0.0683 | 0.0268 | 0.1094 | 
3 | O=Cc1ccoc1B(O)O [3-formylfuran-2-boronic acid] | 107.84 | 73.72 | 65.18 | −0.0012 | 0.0274 | 0.08621 | 
4 | OB(O)C1=CCCC1 [cyclopenten-1-yl boronic acid] | 99.21 | 79.90 | 68.16 | −0.0551 | 0.01168 | 0.1634 | 
5 | OB(O)c1cc(Br)cs1 [3-bromothiophene-5-boronic acid] | 116.67 | 97.63 | 62.08 | −0.1162 | −0.023 | 0.1539 | 
6 | O=c1[nH]cc(B(O)O)c(=O)[nH]1 [uracil-5-boronic acid] | 68.5083 | 50.3499 | 28.07 | −0.0586 | 0.00516 | −0.01522 | 
7 | CCS(=O)(=O)c1ccc(B(O)O)cc1 [4-ethylsulfonyl-phenylboronic acid] | 67.61 | 66.47 | 37.46 | 0.00184 | 0.1802 | 0.129 | 
8 | CCOc1ccc(B(O)O)cn1 [2-ethoxy-5-pyridine-boronic acid] | 81.40 | 69.58 | 33.80 | −0.1416 | −0.0136 | 0.1498 | 
9 | CC(C)OB(CBr)OC(C)C [diisopropyl(bromomethyl)boronate] | 81.27 | 96.62 | 79.32 | −0.0205 | 0.02739 | 0.1157 | 
10 | CC(=O)c1ccc(B(O)O)s1 [5-acetyl-2-thiopheneboronic acid] | 84.50 | 82.81 | 51.27 | 0.02454 | 0.06312 | 0.2343 | 
11 | Cc1noc(C)c1B(O)O [3,5-dimethylisoxazole-4-boronic acid] | 88.37 | 90.63 | 42.89 | −0.061 | 0.0057 | −0.01277 | 
12 | OB(O)c1cccc2c1oc1ccccc12 [4-dibenzofuranboronic acid] | 71.48 | 75.50 | 70.50 | −0.0736 | −0.0438 | −0.128 | 
13 | Cn1c(B(O)O)cc2ccccc21 [N-methylindole-2-boronic acid] | 63.3131 | 63.6075 | 47.46 | −0.126 | 0.00746 | 0.1336 | 
14 | C=C(B(O)O)c1ccccc1 [1-phenylvinylbornic acid] | 66.08 | 67.23 | 58.91 | −0.1145 | 0.03776 | 0 | 
15 | OB(O)c1ccnc(Cl)c1 [2-chloropyridine-4-boronic acid] | 84.93 | 58.47 | 56.36 | −0.1195 | 0.00374 | 0 | 
16 | OB(O)c1ccsc1 [3-thienylboronic acid] | 90.42 | 80.00 | 49.85 | −0.0062 | 0.1457 | 0.05963 | 
17 | OB(O)c1cccc(OCc2ccccc2)c1 [3-(benzyloxy)phenylboronic acid] | 99.83 | 71.94 | 28.92 | −0.1159 | 0.0809 | 0.3768 | 
18 | O=C(O)c1cc(B(O)O)cc([N+](=O)[O-])c1 [3-carboxy-5-nitrophenylboronic acid] | 54.3094 | 46.2431 | 33.3 | −0.0136 | 0.03893 | 0.1227 | 
